The text below walks through data of US20160228388A1, “METHODS OF ADMINISTERING AMANTADINE COMPOSITIONS” (Adamas Pharmaceuticals, Inc., priority 2014, published 2016).

Series [1] deals with MOG35-55 induced experimental autoimmune encephalomyelitis (EAE) in C57BL/6 mice. The experiment in a line: Example 9: clinical scoring of EAE in a mouse model of multiple sclerosis. The following applies: for onset of disease / clinical scores: AMT 60 mg/kg/day or DAL 4 mg/kg/day by Alzet minipump; for clinical scores: vs untreated EAE mice, FIG. 6; for cumulative clinical score (Day 18-27): vs untreated control, FIG. 7. The format is in vivo.

The next series has as its system Iba-1. The experiment in a line: Example 9: Iba-1 expression (marker of microglia activation) in EAE mice. The series is classed as in vivo. As to conditions: AMT 60 mg/kg/day, FIG. 8.
Series [2] deals with MOG35-55 induced experimental autoimmune encephalomyelitis (EAE) in C57BL/6 mice. The experiment in a line: Example 9: kinematic gait analysis / MotoRater walk test in EAE mice. As to conditions: for % of animals able to complete the walking test: day 16, EAE mice, untreated EAE control 40%, FIG. 9. The series is classed as in vivo. As for the experimental part: The captured videos of each mouse were first converted to SimiMotion software to track the marked points of body (e.g., paws, hips, tail, etc.), and the movement of these different body points in relation to the ground were recorded in coordinates. Different gait patterns and fine motor movements were analyzed using a custom made automated analysis system. Kinematic endpoints are described in Table 13. [table] Kinematic parameters (Table 13) were graphed as individual values in a scatter graph and/or as mean (±SEM) in a bar graph.

For series [3] the following is noted: dose related; Gracies and Olanow 2002; cited from earlier work.
For a further series, the system named is Parkinson's patients. As to conditions: cited from earlier work.
Series [4] concerns multiple sclerosis patients. The following applies: Goodman et al. 2009; cited from earlier work.

Structures can show the parent of a compound that is named as a salt.

As for `NC12CC3CC(CC(C3)C1)C2` [Amantadine HCl], the symptom severity entry in series [1] (AMT 60 mg/kg/day by Alzet minipump) is “decreased symptom severity”. Further, in series [1], the onset of disease entry is “Neither group treated with drug showed a delay onset of disease”, the clinical scores entry is “lower clinical scores” and the “cumulative clinical score (Day 18-27)” value is “reduced cumulative clinical scores”. Moreover, the Iba-1 expression result in the series with Iba-1 is “significantly lower expression”. Besides, the “60 cm Walk Time” value in series [2] (Day 14, vs untreated EAE control and dalfampridine-treated group, FIG. 10A) is listed as “lower time”. Further, the mean walking speed entry in series [2] (Day 14, vs untreated EAE control and dalfampridine-treated group, FIG. 10B) is “faster mean walking speed”. For the same molecule, the “% of animals able to complete the walking test” value in series [2] is 60%. The CNS side effects result in series [3] is “dose related CNS side effects including dizziness, confusion, hallucinations, insomnia and nightmares”.

Regarding `Nc1ccncc1` [Dalfampridine, 4-Aminopyridine], in series [1], the onset of disease result is on record as “Neither group treated with drug showed a delay onset of disease”, the clinical scores entry is given as “lower clinical scores” and the “cumulative clinical score (Day 18-27)” value is “reduced cumulative clinical scores”. Also, in series [2], the “% of animals able to complete the walking test” value stood at 50%. In addition, the “walking ability (velocity and stride length)” value in the series with Parkinson's patients (Parkinson's patients, at four weeks, Luca et al. 2015) is “did not show an improvement”. In addition, the walking ability entry in series [4] is listed as “improvement in walking ability in some patients”.

Consider `COC(=O)C(c1ccccc1)C1CCCCN1` (centres unmarked) [Methylphenidate], for which the gait impairment result with Parkinson's patients (Parkinson's disease, Espay et al. 2011) is on record as “not effective”. Further, the gait entry in the series on Parkinson's patients (Parkinson's patients with severe gait disorders receiving STN stimulation, Moreau et al. 2012) is listed as “improvement in gait”.
